Experiments:
Format in all cases: in vivo
[1] = test system: barnyardgrass (Echinochloa crus-galli); test: Test B flooded paddy; conditions: Echinochloa crus-galli, 336 h; 250 g ai/ha, Flood, 13 to 15 days, scale 0 (no effect) to 100 (complete control); read-out: Plant response rating, Barnyardgrass
Procedure, shortened: (§1)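 Pots were flooded to 3 cm above the soil surface at treatment, compound applied directly to the paddy water, and that depth held throughout. Plants were kept in a greenhouse for 13 to 15 days, then visually rated against untreated controls.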

[2] = test system: ducksalad (Heteranthera limosa); test: Test B flooded paddy; conditions: Heteranthera limosa, 336 h; 250 g ai/ha, Flood, 13 to 15 days, scale 0 (no effect) to 100 (complete control); read-out: Plant response rating, Ducksalad
Procedure, shortened: as §1

[3] = test system: rice (Oryza sativa); test: Test B flooded paddy; conditions: Oryza sativa, 336 h; 250 g ai/ha, Flood, 13 to 15 days, scale 0 (no effect) to 100 (complete control); read-out: Plant response rating, Rice
Procedure, shortened: as §1

[4] = test system: sedge, umbrella (small-flower umbrella sedge, Cyperus difformis); test: Test B flooded paddy; conditions: Cyperus difformis, 336 h; 250 g ai/ha, Flood, 13 to 15 days, scale 0 (no effect) to 100 (complete control); read-out: Plant response rating, Sedge, Umbrella
Procedure, shortened: as §1

[5] = test system: Italian ryegrass (Lolium multiflorum); test: Test A preemergence; conditions: Lolium multiflorum, pre-emergence, 240 h, 0 to 100 scale (0 no effect, 100 complete control), read-out: Ryegrass, Italian plant response rating
Procedure, shortened: (§2)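 Visual injury scored 0–100 (100 = complete control) against untreated controls about 10 days after treatment in a greenhouse. Test chemicals, formulated with surfactant in non-phytotoxic solvent, were sprayed on soil preemergence or on 2-10 cm, one- to two-leaf plants postemergence.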

[6] = test system: barnyardgrass (Echinochloa crus-galli); test: Test A preemergence; conditions: Echinochloa crus-galli, pre-emergence, 240 h, 0 to 100 scale (0 no effect, 100 complete control), read-out: Barnyardgrass plant response rating
Procedure, shortened: as §2

[7] = test system: giant foxtail (Setaria faberii); test: Test A preemergence; conditions: Setaria faberi, pre-emergence, 240 h, 0 to 100 scale (0 no effect, 100 complete control), read-out: Foxtail, Giant plant response rating
Procedure, shortened: as §2

[8] = test system: kochia (Kochia scoparia); test: Test A preemergence; conditions: Bassia scoparia, pre-emergence, 240 h, 0 to 100 scale (0 no effect, 100 complete control), read-out: Kochia plant response rating
Procedure, shortened: as §2

[9] = test system: pigweed (Amaranthus retroflexus); test: Test A preemergence; conditions: Amaranthus retroflexus, pre-emergence, 240 h, 0 to 100 scale (0 no effect, 100 complete control), read-out: Pigweed plant response rating
Procedure, shortened: as §2

[10] = test system: ragweed (common ragweed, Ambrosia elatior); test: Test A preemergence; conditions: Ambrosia artemisiifolia, pre-emergence, 240 h, 0 to 100 scale (0 no effect, 100 complete control), read-out: Ragweed plant response rating
Procedure, shortened: as §2

[11] = test system: Italian ryegrass (Lolium multiflorum); test: Test A postemergence; conditions: Lolium multiflorum, post-emergence, 240 h, 0 to 100 scale, read-out: Plant response rating, Ryegrass, Italian
Procedure, shortened: as §2

[12] = test system: barnyardgrass (Echinochloa crus-galli); test: Test A postemergence; conditions: Echinochloa crus-galli, post-emergence, 240 h, 0 to 100 scale, read-out: Plant response rating, Barnyardgrass
Procedure, shortened: as §2

[13] = test system: blackgrass (Alopecurus myosuroides); test: Test A postemergence; conditions: Alopecurus myosuroides, post-emergence, 240 h, 0 to 100 scale, read-out: Plant response rating, Blackgrass
Procedure, shortened: as §2

[14] = test system: corn (Zea mays); test: Test A postemergence; conditions: Zea mays, post-emergence, 240 h, 0 to 100 scale
Procedure, shortened: as §2

[15] = test system: galium (catchweed bedstraw, Galium aparine); test: Test A postemergence; conditions: Galium, post-emergence, 240 h, 0 to 100 scale, read-out: Plant response rating, Galium
Procedure, shortened: as §2

[16] = test system: giant foxtail (Setaria faberii); test: Test A postemergence; conditions: Setaria faberi, post-emergence, 240 h, 0 to 100 scale, read-out: Plant response rating, Foxtail, Giant
Procedure, shortened: as §2

[17] = test system: kochia (Kochia scoparia); test: Test A postemergence; conditions: Bassia scoparia, post-emergence, 240 h, 0 to 100 scale, read-out: Plant response rating, Kochia
Procedure, shortened: as §2

[18] = test system: pigweed (Amaranthus retroflexus); test: Test A postemergence; conditions: Amaranthus retroflexus, post-emergence, 240 h, 0 to 100 scale, read-out: Plant response rating, Pigweed
Procedure, shortened: as §2

[19] = test system: ragweed (common ragweed, Ambrosia elatior); test: Test A postemergence; conditions: Ambrosia artemisiifolia, post-emergence, 240 h, 0 to 100 scale, read-out: Plant response rating, Ragweed
Procedure, shortened: as §2

[20] = test system: wheat (Triticum aestivum); test: Test A postemergence; conditions: Triticum aestivum, post-emergence, 240 h, 0 to 100 scale, read-out: Plant response rating, Wheat
Procedure, shortened: as §2

[21] = test system: kochia (Kochia scoparia); test: Test C postemergence; conditions: Bassia scoparia, post-emergence, Postemergence, scale 0 to 100, read-out: Plant response rating, Kochia
Procedure, shortened: (§3)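 Seeds in loam-sand soil were treated preemergence, and plants at the 1- to 4-leaf stage (2-18 cm) in peat-based medium were sprayed postemergence, with test chemicals in a non-phytotoxic solvent containing surfactant. After 13-15 days in a greenhouse, response was rated visually against controls from 0 (no effect) to 100 (complete control).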

[22] = test system: waterhemp (common waterhemp, Amaranthus rudis); test: Test C postemergence; conditions: Amaranthus tuberculatus, post-emergence, Postemergence, scale 0 to 100, read-out: Plant response rating, Waterhemp
Procedure, shortened: as §3

[23] = test system: wild oat (Avena fatua); test: Test C postemergence; conditions: Avena fatua, post-emergence, Postemergence, scale 0 to 100, read-out: Plant response rating, Oat, Wild
Procedure, shortened: as §3

Compound: N#Cc1cccc(Oc2ncc(Cl)cn2)c1Oc1ncc(C(F)(F)F)cn1 [Compound 38, 3-[(5-chloro-2-pyrimidinyl)oxy]-2-[[5-(trifluoromethyl)-2-pyrimidinyl]oxy]-benzonitrile]
- pest or weed control at 250 g/ha [1]: 85%
- pest or weed control at 250 g/ha [2]: 100%
- plant injury at 250 g/ha [3]: 45%
- pest or weed control at 250 g/ha [4]: 100%
- pest or weed control at 31 g/ha ([5]; 31 g ai/ha): 10%
- pest or weed control at 125 g/ha ([5]; 125 g ai/ha): 90%
- pest or weed control at 31 g/ha ([6]; 31 g ai/ha): 80%
- pest or weed control at 125 g/ha ([6]; 125 g ai/ha): 100%
- pest or weed control at 31 g/ha ([7]; 31 g ai/ha): 100%
- pest or weed control at 125 g/ha ([7]; 125 g ai/ha): 100%
- pest or weed control at 31 g/ha ([8]; 31 g ai/ha): 90%
- pest or weed control at 125 g/ha ([8]; 125 g ai/ha): 100%
- pest or weed control at 31 g/ha ([9]; 31 g ai/ha): 100%
- pest or weed control at 125 g/ha ([9]; 125 g ai/ha): 100%
- pest or weed control at 31 g/ha ([10]; 31 g ai/ha): 30%
- pest or weed control at 125 g/ha ([10]; 125 g ai/ha): 90%
- pest or weed control at 31 g/ha ([11]; 31 g ai/ha): 50%
- pest or weed control at 125 g/ha ([11]; 125 g ai/ha): 90%
- pest or weed control at 31 g/ha ([12]; 31 g ai/ha): 90%
- pest or weed control at 125 g/ha ([12]; 125 g ai/ha): 90%
- pest or weed control at 31 g/ha ([13]; 31 g ai/ha): 40%
- pest or weed control at 125 g/ha ([13]; 125 g ai/ha): 90%
- Corn plant response rating (crop injury, 0 = no effect, 100 = complete kill) at 31 g/ha ([14]; 31 g ai/ha): 40%
- Corn plant response rating (crop injury, 0 = no effect, 100 = complete kill) at 125 g/ha ([14]; 125 g ai/ha): 90%
- pest or weed control at 31 g/ha ([15]; 31 g ai/ha): 80%
- pest or weed control at 125 g/ha ([15]; 125 g ai/ha): 100%
- pest or weed control at 31 g/ha ([16]; 31 g ai/ha): 100%
- pest or weed control at 125 g/ha ([16]; 125 g ai/ha): 100%
- pest or weed control at 31 g/ha ([17]; 31 g ai/ha): 100%
- pest or weed control at 125 g/ha ([17]; 125 g ai/ha): 100%
- pest or weed control at 31 g/ha ([18]; 31 g ai/ha): 100%
- pest or weed control at 125 g/ha ([18]; 125 g ai/ha): 100%
- pest or weed control at 31 g/ha ([19]; 31 g ai/ha): 40%
- pest or weed control at 125 g/ha ([19]; 125 g ai/ha): 70%
- plant injury at 31 g/ha ([20]; 31 g ai/ha): 20%
- plant injury at 125 g/ha ([20]; 125 g ai/ha): 90%
- pest or weed control at 16 g/ha ([21]; 16 g ai/ha): 90%
- pest or weed control at 31 g/ha ([21]; 31 g ai/ha): 90%
- pest or weed control at 62 g/ha ([21]; 62 g ai/ha): 90%
- pest or weed control at 125 g/ha ([21]; 125 g ai/ha): 95%
- pest or weed control at 31 g/ha ([22]; 31 g ai/ha): 75%
- pest or weed control at 62 g/ha ([22]; 62 g ai/ha): 85%
- pest or weed control at 125 g/ha ([22]; 125 g ai/ha): 95%
- pest or weed control at 31 g/ha ([23]; 31 g ai/ha): 5%
- pest or weed control at 62 g/ha ([23]; 62 g ai/ha): 10%
- pest or weed control at 125 g/ha ([23]; 125 g ai/ha): 10%
